For one test, the target named is T1, rat NaPi-2b (Rattus norvegicus, UniProt Q9JJ09).
T1 construct: expressed in transfected cells; host or cells: Xenopus oocytes injected with cRNA
T1 sequence (Q9JJ09 1-695): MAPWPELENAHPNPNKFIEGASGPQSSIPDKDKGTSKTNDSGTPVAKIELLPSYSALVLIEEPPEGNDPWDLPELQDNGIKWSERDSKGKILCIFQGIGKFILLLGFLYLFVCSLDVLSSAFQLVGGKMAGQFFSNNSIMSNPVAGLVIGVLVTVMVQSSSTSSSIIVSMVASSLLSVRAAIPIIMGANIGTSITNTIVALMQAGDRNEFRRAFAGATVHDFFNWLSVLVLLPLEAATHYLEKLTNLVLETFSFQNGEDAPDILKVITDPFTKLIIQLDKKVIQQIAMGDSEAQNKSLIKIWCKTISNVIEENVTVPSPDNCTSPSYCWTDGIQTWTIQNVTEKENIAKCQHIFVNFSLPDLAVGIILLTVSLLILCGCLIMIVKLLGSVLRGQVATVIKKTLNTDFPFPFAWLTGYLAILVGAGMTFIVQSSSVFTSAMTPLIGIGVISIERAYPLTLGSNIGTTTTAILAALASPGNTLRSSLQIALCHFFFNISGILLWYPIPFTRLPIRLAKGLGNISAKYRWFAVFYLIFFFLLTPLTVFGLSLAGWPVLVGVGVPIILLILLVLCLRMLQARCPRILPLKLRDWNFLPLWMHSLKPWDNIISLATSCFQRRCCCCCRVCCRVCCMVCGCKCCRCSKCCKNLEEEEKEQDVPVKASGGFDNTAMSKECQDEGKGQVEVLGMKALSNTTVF
The test is described as follows: Sodium-dependent phosphate uptake of Xenopus oocytes which expressed NaPi-2b (32P). As to conditions: Xenopus oocytes expressing rat NaPi-2b, 32P radioactive phosphorus; read-out: IC50 (phosphate uptake inhibitory activity). It is filed as cell-based. The procedure, abridged: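 Read-out is 32P phosphate uptake into Xenopus oocytes expressing rat intestinal NaPi-2b (cRNA injection, 2-day culture). Inhibition at 300 μM and 100 μM was derived from a single inhibition curve and given as percent.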

The target in the next test is T2, human NaPi-2a (Homo sapiens, UniProt Q06495).
T2 construct: expressed in transfected cells
T2 sequence (Q06495 1-639): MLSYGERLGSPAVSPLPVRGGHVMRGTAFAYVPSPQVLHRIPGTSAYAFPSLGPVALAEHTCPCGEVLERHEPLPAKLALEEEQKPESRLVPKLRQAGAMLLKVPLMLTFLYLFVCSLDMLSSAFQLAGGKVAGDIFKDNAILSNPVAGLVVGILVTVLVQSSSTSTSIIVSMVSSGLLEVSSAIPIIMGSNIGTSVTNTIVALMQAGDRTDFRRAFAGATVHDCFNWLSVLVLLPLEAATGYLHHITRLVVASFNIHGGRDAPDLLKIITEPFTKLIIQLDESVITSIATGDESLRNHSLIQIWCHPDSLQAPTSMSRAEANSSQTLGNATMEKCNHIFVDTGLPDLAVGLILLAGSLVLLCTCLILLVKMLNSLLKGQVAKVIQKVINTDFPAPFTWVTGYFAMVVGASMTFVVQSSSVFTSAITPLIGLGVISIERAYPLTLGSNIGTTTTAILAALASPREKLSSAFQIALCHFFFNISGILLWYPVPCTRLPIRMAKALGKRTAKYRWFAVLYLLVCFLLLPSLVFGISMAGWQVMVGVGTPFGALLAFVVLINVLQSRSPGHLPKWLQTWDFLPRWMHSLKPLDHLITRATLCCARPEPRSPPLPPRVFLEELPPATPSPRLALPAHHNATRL
The test is described as follows: Sodium-dependent phosphate uptake of Xenopus oocytes which expressed NaPi-2a (32P). The note with it: Xenopus oocytes expressing human NaPi-2a; for IC50: phosphate uptake, five concentration levels. It is filed as cell-based. From the text:
Experiment of Sodium-Dependent Phosphate Uptake of Xenopus oocytes which Expressed NaPi-2a
In the test, a group with the addition of choline chloride (Choline Cl) was used as a negative control for nonspecific uptake, and PFA (phosphonoformic acid) was used as a positive control for phosphate transport inhibition.

Here are results for 19 molecules from patent US8134015B2, “Compound inhibiting in vivo phosphorous transport and medicine containing the same” (Kyowa Hakko Kirin Co., Ltd., priority 2003, dated 2012).

Structures are written as SMILES.

The term IC50 denotes the concentration that inhibits the measured activity by half. Turning to `O=C(Nc1sc2c(c1C(=O)N/N=C/c1cccc(F)c1)CCCC2)c1cccc(CN2CCC(CO)CC2)c1` [Compound 642, N-[3-(3-Fluoro-benzylidene-hydrazinocarbonyl)-4,5,6,7-tetrahydro-benzo[b]thiophen-2-yl]-3-(4-hydroxymethyl-piperidin-1-ylmethyl)-benzamide], the IC50 at rat NaPi-2b amounted to 2140 nM; on human NaPi-2a it was 13.3 µM.

Turning to `CCN(CC)CCNCc1cccc(C(=O)Nc2sc3c(c2C(=O)N/N=C/c2ccc(C)c(C)c2)CCC3)c1` [Compound 810, 3-[(2-Diethylamino-ethylamino)-methyl]-N-[3-(3,4-dimethyl-benzylidene-hydrazinocarbonyl)-5,6-dihydro-4H-cyclopenta[b]-thiophen-2-yl]-benzamide], the IC50 at rat NaPi-2b amounted to 6680 nM; against human NaPi-2a, 23.8 µM.

As to `O=C(Nc1ccc(N2CCCCC2)cc1C(=O)N/N=C/c1ccc(Cl)c(C(F)(F)F)c1)c1cccc(CSCCO)c1` [Compound 884, N-[2-(4-Chloro-3-trifluoromethyl-benzylidene-hydrazinocarbonyl)-4-piperidin-1-yl-phenyl]-3-(2-hydroxy-ethylsulfanylmethyl)-benzamide], the IC50 stood at 950 nM on rat NaPi-2b and 35.9 µM at human NaPi-2a.

With `O=C(Nc1sc2c(c1C(=O)N/N=C/c1cccc(F)c1)CCCC2)c1cccc(CN2CCC(O)CC2)c1` [Compound 636, N-[3-(3-Fluoro-benzylidene-hydrazinocarbonyl)-4,5,6,7-tetrahydro-benzo[b]thiophen-2-yl]-3-(4-hydroxy-piperidin-1-ylmethyl)-benzamide], the IC50 was 3890 nM at rat NaPi-2b and 5.3 µM against human NaPi-2a.

Consider `Cc1ccc(/C=N/NC(=O)c2cc(Cl)ccc2NC(=O)c2cccc(CSCC(O)CO)c2)cc1` (centres unmarked) [Compound 1008, N-[4-Chloro-2-(4-methyl-benzylidene-hydrazinocarbonyl)-phenyl]-3-(2,3-dihydroxy-propylsulfanylmethyl)-benzamide], for which the IC50 was found to be 300 nM at rat NaPi-2b and 2.3 µM against human NaPi-2a.

As to `COc1ccc(C(=O)Nc2ccccc2C(=O)N/N=C/C=C/c2ccccc2)cc1OC` [Compound 1, 3,4-Dimethoxy-N-[2-(3-phenyl-allylidene-hydrazinocarbonyl)-phenyl]-benzamide], at rat NaPi-2b, the IC50 is 9110 nM. Also, the “phosphate uptake inhibitory activity against NaPi-2a” value at human NaPi-2a (FIG. 3, FIG. 4) is “concentration-dependent inhibitory activity”.

Turning to `O=C(O)CSCc1cccc(C(=O)Nc2ccc(N3CCCCC3)cc2C(=O)N/N=C/c2ccc(Cl)c(C(F)(F)F)c2)c1` [Compound 891, {3-[2-(4-Chloro-3-trifluoromethyl-benzylidene-hydrazinocarbonyl)-4-piperidin-1-yl-phenylcarbamoyl]-benzylsulfanyl}-acetic acid], the IC50 on rat NaPi-2b is 1470 nM; against human NaPi-2a, 13.9 µM.

Turning to `Cc1ccc(/C=N/NC(=O)c2cc(Br)ccc2NC(=O)c2ccc(CSCCO)cc2)cc1` [Compound 264, N-[4-Bromo-2-(4-methyl-benzylidene-hydrazinocarbonyl)-phenyl]-4-(2-hydroxy-ethylsulfanylmethyl)-benzamide], the IC50 is below 1000 nM at rat NaPi-2b and 4.36 µM against human NaPi-2a.

For the molecule `COc1ccc(NC(=O)c2cccc(CSCC(O)CO)c2)c(C(=O)N/N=C/c2ccc(Cl)c(C(F)(F)F)c2)c1` (centres unmarked) [Compound 1020, N-[2-(4-Chloro-3-trifluoromethyl-benzylidene-hydrazinocarbonyl)-4-methoxy-phenyl]-3-(2,3-dihydroxy-propylsulfanyl-methyl)-benzamide], the IC50 is 390 nM at rat NaPi-2b and 2.25 µM at human NaPi-2a.

With `Cc1ccc(/C=N/NC(=O)c2cc(N3CCCCC3)ccc2NC(=O)c2cccc(CN3CCc4nc5ncccc5cc4C3)c2)cc1` [Compound 894, 3-(7,8-Dihydro-5H-1,6,9-triaza-anthracen-6-ylmethyl)-N-[2-(4-methyl-benzylidene-hydrazinocarbonyl)-4-piperidin-1-yl-phenyl]-benzamide], the IC50 on rat NaPi-2b stood at 500 nM; against human NaPi-2a it was 3.61 µM.

For `CCN(CC)CCN(CCN(CC)CC)Cc1cccc(C(=O)Nc2scc(C)c2C(=O)N/N=C/c2ccc(C)cc2)c1` [Compound 839, 3-{[Bis-(2-diethylamino-ethyl)-amino]-methyl}-N-[4-methyl-3-(4-methyl-benzylidene-hydrazinocarbonyl)-thiophen-2-yl]-benzamide], the IC50 turned out to be 5040 nM on rat NaPi-2b and 23.2 µM at human NaPi-2a.

Regarding `Cc1ccc(/C=N/NC(=O)c2c(C)csc2NC(=O)c2cccc(CN3CCC4(CC3)OCCO4)c2)cc1C` [Compound 832, N-[3-(3,4-Dimethyl-benzylidene-hydrazinocarbonyl)-4-methyl-thiophen-2-yl]-3-(1,4-dioxa-8-aza-spiro[4,5]dec-8-ylmethyl)-benzamide], the IC50 on rat NaPi-2b was 4970 nM; against human NaPi-2a, 6.4 µM.

For `O=C(O)CCSCc1cccc(C(=O)Nc2ccc(N3CCCCC3)cc2C(=O)N/N=C/c2ccc(Cl)c(C(F)(F)F)c2)c1` [Compound 889, 3-{3-[2-(4-Chloro-3-trifluoromethyl-benzylidene-hydrazinocarbonyl)-4-piperidin-1-yl-phenylcarbamoyl]-benzylsulfanyl}-propionic acid], the figures for the IC50 at rat NaPi-2b and against human NaPi-2a were 330 nM and 1.41 µM, respectively.

In the case of `O=C(Nc1ccc(Br)cc1C(=O)N/N=C/c1ccc(F)cc1)c1ccc(CSCCO)cc1` [Compound 262, N-[4-Bromo-2-(4-fluoro-benzylidene-hydrazinocarbonyl)-phenyl]-4-(2-hydroxy-ethylsulfanylmethyl)-benzamide], the IC50 came out at 1100 nM at rat NaPi-2b and 4.42 µM against human NaPi-2a.

Consider `COc1ccc(/C=N/NC(=O)c2c(C)csc2NC(=O)c2cccc(CN(CC(C)O)CC(C)O)c2)cc1` (centres unmarked) [Compound 592, 3-{[Bis-(2-hydroxy-propyl)-amino]-methyl}-N-[3-(4-methoxy-benzylidene-hydrazinocarbonyl)-4-methyl-thiophen-2-yl]-benzamide], for which the IC50 on rat NaPi-2b was found to be 11900 nM; on human NaPi-2a it was 9.51 µM.

Consider `COc1ccc(/C=N/NC(=O)c2cc(N3CCCCC3)ccc2NC(=O)c2cccc(CSCC(O)CO)c2)cc1` (centres unmarked) [Compound 904, 3-(2,3-Dihydroxy-propylsulfanylmethyl)-N-[2-(4-methoxy-benzylidene-hydrazinocarbonyl)-4-piperidin-1-yl-phenyl]-benzamide], for which the IC50 at rat NaPi-2b came out at 1710 nM; at human NaPi-2a, 1.69 µM.

With `Cc1ccc(/C=N/NC(=O)c2c(NC(=O)c3cccc(CN(CC(C)O)CC(C)O)c3)sc3c2CCCC3)cc1` (centres unmarked) [Compound 628, 3-{[Bis-(2-hydroxy-propyl)-amino]-methyl}-N-[3-(4-methyl-benzylidene-hydrazinocarbonyl)-4,5,6,7-tetrahydro-benzo-[b]thiophen-2-yl]-benzamide], the figures for the IC50 on rat NaPi-2b and at human NaPi-2a were 1290 nM and 3.59 µM, respectively.

On to `O=C(Nc1sc2c(c1C(=O)N/N=C/c1ccc(F)cc1)CCC2)c1cccc(CN2CCC(CO)CC2)c1` [Compound 818, N-[3-(4-Fluoro-benzylidene-hydrazinocarbonyl)-5,6-dihydro-4H-cyclopenta[b]thiophen-2-yl]-3-(4-hydroxymethyl-piperidin-1-ylmethyl)-benzamide], for which the IC50 at rat NaPi-2b worked out at 7380 nM; on human NaPi-2a it was 31.4 µM.

As for `O=C(Nc1sc2c(c1C(=O)N/N=C/c1ccc(F)cc1)CCCC2)c1cccc(CN2CCC(CO)CC2)c1` [Compound 641, N-[3-(4-Fluoro-benzylidene-hydrazinocarbonyl)-4,5,6,7-tetrahydro-benzo[b]thiophen-2-yl]-3-(4-hydroxymethyl-piperidin-1-ylmethyl)-benzamide], the IC50 at rat NaPi-2b was determined as 2920 nM; against human NaPi-2a it was 7.53 µM.
